EC50 and Kd data for 17 molecules are collected here from patent US12643912B2, “Macrocyclic compounds, a process for their preparation and pharmaceutical compositions containing them” (LES LABORATOIRES SERVIER, priority 2020, dated 2026).

Each structure is given as a SMILES string.

For experiment [1], the system named is Nrf2 (Keap1-NRF2 nuclear translocation). Nature of the experiment: U2OS translocation assay (PathHunter U2OS Keap1-NRF2 Nuclear Translocation Cell Line). Type of experiment: cell-based. Particulars: Homo sapiens, U2OS, 3 h, read-out: CELLULAR U2OS EC50 (nM), U2OS Keap1-NRF2 nuclear translocation cells, 3 h incubation, luminescence, normalized between 1% DMSO and 10 μM andrographolide. The method in brief:
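PathHunter U2OS line expressing Nrf2-enzyme-donor fusion and nuclear acceptor enzyme, 7 500 cells/well in Opti-MEM, 1% FBS. Compounds incubated 3 h at 37° C. Luminescence after 60 min with detection reagent, normalized between 1% DMSO and 10 μM andrographolide.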

The target in experiment [2] is T1, Keap1 (A321-C624) (h) (Homo sapiens, UniProt Q14145).
T1 construct: His-Thromb-KEAP1(A321-C624) acquired from Novalix (batch PU-P01) was immobilized covalently by amine coupling; His tag (N); thrombin cleavage site (Thromb) (N); purchased Novalix batch PU-P01
T1 sequence (Q14145 321-624): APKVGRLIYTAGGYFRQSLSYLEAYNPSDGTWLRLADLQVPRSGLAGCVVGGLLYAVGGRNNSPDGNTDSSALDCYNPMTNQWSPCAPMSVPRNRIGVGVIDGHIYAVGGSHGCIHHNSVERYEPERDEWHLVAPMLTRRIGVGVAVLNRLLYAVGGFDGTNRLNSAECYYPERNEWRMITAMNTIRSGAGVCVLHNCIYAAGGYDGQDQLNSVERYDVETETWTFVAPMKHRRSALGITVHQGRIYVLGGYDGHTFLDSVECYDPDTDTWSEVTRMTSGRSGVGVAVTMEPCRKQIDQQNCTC
Nature of the experiment: Surface Plasmon Resonance binding assay to Kelch domain of KEAP1. Particulars: Biacore T200, 25° C., immobilized His-Thromb-KEAP1(A321-C624), single cycle kinetics, KD=kd/ka from 1:1 fit; read-out: Keap1 (A321-C624) (h) direct/SPR (KD). The method in brief:
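His-Thromb-KEAP1(A321-C624) amine-coupled on CM5 chip to 1250 RU; amine blank reference. Run at 25° C in HEPES pH 7.4, 150 mM NaCl, 3 mM EDTA, 1 mM TCEP, 0.05% P20, 5% DMSO; 180 s association, 720 s dissociation, 50 μL/min. KD = kd/ka from 1:1 kinetic fit, double-referenced, DMSO solvent-corrected.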
Background: In SPR one partner is held on a chip, and binding of the other changes the refractive index at the surface.

As usually defined, the EC50 is the concentration giving half of the maximal effect. Turning to `Cc1ccc2cc1[C@@H](C)N1Cc3cc(ccc3OS1(=O)=O)OCCCN(C)CCn1nnc3c(C)c(ccc31)[C@@H]2CC(=O)O` [Example 21b, [(2R,8R)-2,4,19,33-tetramethyl-29,29-dioxo-23,28-dioxa-29λ^6-thia-1,14,15,16,19-pentaazahexacyclo[22.5.3.1^3,70.1^9,130.0^12,160.0^27,31]tetratriaconta-3(34),4,6,9(33),10,12,14,24,26,31-decaen-8-yl]acetic acid], in experiment [1], the EC50 worked out at 166 nM. For the same molecule, the Kd in experiment [2] is 20.8 nM.
In the same order, the values of `COc1cc2cc3c1OS(=O)(=O)N(C3)[C@H](C)c1cc(ccc1C)[C@@H](CC(=O)O)c1ccc3c(nnn3CCCCO2)c1C` [Example 23a, [(2R,8R)-24-Methoxy-2,4,31-trimethyl-27,27-dioxo-21,26-dioxa-27λ^6-thia-1,14,15,16-tetraazahexacyclo[20.5.3.1^3,70.1^9,130.0^12,160.0^25,29]dotriaconta-3(32),4,6,9(31),10,12,14,22,24,29-decaen-8-yl]acetic acid] are 3160 nM and 50.5 nM.
Consider `COc1cc2cc3c1OS(=O)(=O)N(C3)[C@H](C)c1cc(ccc1C)[C@H](CC(=O)O)c1ccc3c(nnn3CCCCO2)c1C` [Example 23b, [(2R,8S)-24-methoxy-2,4,31-trimethyl-27,27-dioxo-21,26-dioxa-27λ^6-thia-1,14,15,16-tetraazahexacyclo[20.5.3.1^3,70.1^9,130.0^12,160.0^25,29]dotriaconta-3(32),4,6,9(31),10,12,14,22,24,29-decaen-8-yl]acetic acid], for which the EC50 in experiment [1] is 344 nM. In addition, the Kd in experiment [2] was determined as 8.8 nM.
In the same order, the values of `Cc1ccc2cc1[C@@H](C)N1Cc3cc(ccc3OS1(=O)=O)OCCOCCCn1nnc3c(C)c(ccc31)[C@H]2CC(=O)O` [Example 26a, [(2R,8S)-2,4,33-Trimethyl-29,29-dioxo-20,23,28-trioxa-29λ^6-thia-1,14,15,16-tetraazahexacyclo[22.5.3.1^3,70.1^9,130.0^12,160.0^27,31]tetratriaconta-3(34),4,6,9(33),10,12,14,24,26,31-decaen-8-yl]acetic acid] are 11.3 nM and 3.4 nM.
For `Cc1ccc2cc1[C@@H](C)N1Cc3cc(ccc3OS1(=O)=O)OCCOCCCn1nnc3c(C)c(ccc31)[C@@H]2CC(=O)O` [Example 26b, [(2R,8R)-2,4,33-trimethyl-29,29-dioxo-20,23,28-trioxa-29λ^6-thia-1,14,15,16-tetraazahexacyclo[22.5.3.1^3,70.1^9,130.0^12,160.0^27,31]tetratriaconta-3(34),4,6,9(33),10,12,14,24,26,31-decaen-8-yl]acetic acid], in that order: 88.8 nM and 12.2 nM.
For `Cc1ccc2cc1[C@@H](C)N1Cc3cc(ccc3OS1(=O)=O)OCCCOCCn1nnc3c(C)c(ccc31)[C@@H]2CC(=O)O` [Example 27a, [(2R,8R)-2,4,33-Trimethyl-29,29-dioxo-19,23,28-trioxa-29λ^6-thia-1,14,15,16-tetraazahexacyclo[22.5.3.1^3,70.1^9,130.1^12,160.0^27,31]tetratriaconta-3(34),4,6,9(33),10,12,14,24,26,31-decaen-8-yl]acetic acid], in that order: 93.1 nM and 14.2 nM.
In the case of `Cc1ccc2cc1[C@@H](C)N1Cc3cc(ccc3OS1(=O)=O)OCCCOCCn1nnc3c(C)c(ccc31)[C@H]2CC(=O)O` [Example 27b, [(2R,8S)-2,4,33-trimethyl-29,29-dioxo-19,23,28-trioxa-29λ^6-thia-1,14,15,16-tetraazahexacyclo[22.5.3.1^3,70.1^9,130.0^12,160.0^27,31]tetratriaconta-3(34),4,6,9(33),10,12,14,24,26,31-decaen-8-yl]acetic acid], the concentration for a half-maximal effect (EC50) in experiment [1] amounted to 16.2 nM. The Kd in experiment [2] amounted to 3.56 nM.
As to `COc1ccc2cc1[C@@H](C)N1Cc3cc(ccc3OS1(=O)=O)OCCCCn1nnc3c(C)c(ccc31)[C@@H]2CC(=O)O` [Example 28a, [(2R,8R)-4-Methoxy-2,31-dimethyl-27,27-dioxo-21,26-dioxa-27λ^6-thia-1,14,15,16-tetraazahexacyclo[20.5.3.1^3,70.1^9,130.0^12,160.0^25,29]dotriaconta-3(32),4,6,9(31),10,12,14,22,24,29-decaen-8-yl]acetic acid], the EC50 in experiment [1] was determined as 611 nM. For the same molecule, the Kd in experiment [2] was found to be 23.4 nM.
For `COc1ccc2cc1[C@@H](C)N1Cc3cc(ccc3OS1(=O)=O)OCCCCn1nnc3c(C)c(ccc31)[C@H]2CC(=O)O` [Example 28b, [(2R,8S)-4-methoxy-2,31-dimethyl-27,27-dioxo-21,26-dioxa-27λ^6-thia-1,14,15,16-tetraazahexacyclo[20.5.3.1^3,70.1^9,130.0^12,160.0^25,29]dotriaconta-3(32),4,6,9(31),10,12,14,22,24,29-decaen-8-yl]acetic acid], in that order: 15.3 nM and 3.25 nM.
For `Cc1ccc2cc1[C@@H](C)N1Cc3cc(ccc3OS1(=O)=O)OCCN(C)CCCn1nnc3c(C)c(ccc31)[C@H]2CC(=O)O` [Example 34a, [(2R,8S)-2,4,20,33-tetramethyl-29,29-dioxo-23,28-dioxa-29λ^6-thia-1,14,15,16,20-pentaazahexacyclo[22.5.3.1^3,70.1^9,130.0^12,160.0^27,31]tetratriaconta-3(34),4,6,9(33),10,12,14,24,26,31-decaen-8-yl]acetic acid], in that order: 2.66 nM and 0.49 nM.
In the same order, the values of `Cc1ccc2cc1[C@@H](C)N1Cc3cc(ccc3OS1(=O)=O)OCCN(C)CCCn1nnc3c(C)c(ccc31)[C@@H]2CC(=O)O` [Example 34b, [(2R,8R)-2,4,20,33-tetramethyl-29,29-dioxo-23,28-dioxa-29λ^6-thia-1,14,15,16,20-pentaazahexacyclo[22.5.3.1^3,70.1^9,130.0^12,160.0^27,31]tetratriaconta-3(34),4,6,9(33),10,12,14,24,26,31-decaen-8-yl]acetic acid] are 31.1 nM and 1.85 nM.
As to `COc1ccc2cc1[C@@H](C)N1Cc3cc(ccc3OS1(=O)=O)OCCCCCCn1nnc3c(C)c(ccc31)[C@H]2CC(=O)O` [Example 40a, [(2R,8S)-4-methoxy-2,33-dimethyl-29,29-dioxo-23,28-dioxa-29λ^6-thia-1,14,15,16-tetraazahexacyclo[22.5.3.1^3,70.1^9,130.0^12,160.0^27,31]tetratriaconta-3(34),4,6,9(33),10,12,14,24,26,31-decaen-8-yl]acetic acid], the EC50 in experiment [1] was 9.72 nM. Moreover, the Kd in experiment [2] is 5.51 nM.
For `COc1ccc2cc1[C@@H](C)N1Cc3cc(ccc3OS1(=O)=O)OCCCCCCn1nnc3c(C)c(ccc31)[C@@H]2CC(=O)O` [Example 40b, [(2R,8R)-4-methoxy-2,33-dimethyl-29,29-dioxo-23,28-dioxa-29λ^6-thia-1,14,15,16-tetraazahexacyclo[22.5.3.1^3,70.1^9,130.0^12,160.0^27,31]tetratriaconta-3(34),4,6,9(33),10,12,14,24,26,31-decaen-8-yl]acetic acid], in that order: 353 nM and 22.3 nM.
In the case of `Cc1ccc2cc1CN1Cc3cc(ccc3OS1(=O)=O)N(C)CCCCn1nnc3c(C)c(ccc31)C2CC(=O)O` (stereo not shown) [Example 42, [4,21,31-Trimethyl-27,27-dioxo-26-oxa-27λ^6-thia-1,14,15,16,21-pentaazahexacyclo[20.5.3.1^3,70.1^9,130.0^12,160.0^25,29]dotriaconta-3(32),4,6,9(31),10,12,14,22,24,29-decaen-8-yl]acetic acid], the EC50 in experiment [1] was 21.4 nM. The Kd in experiment [2] was determined as 1.57 nM.
In the same order, the values of `Cc1ccc2cc1CN1Cc3cc(ccc3OS1(=O)=O)N(C)C(=O)CCCn1nnc3c(C)c(ccc31)C2CC(=O)O` (stereo not shown) [Example 43, [4,21,31-Trimethyl-20,27,27-trioxo-26-oxa-27λ^6-thia-1,14,15,16,21-pentaazahexacyclo[20.5.3.1^3,70.1^9,130.0^12,160.0^25,29]dotriaconta-3(32),4,6,9(31),10,12,14,22,24,29-decaen-8-yl]acetic acid] are 570 nM and 2.92 nM.
For `Cc1ccc2cc1CN1Cc3cc(ccc3OS1(=O)=O)OC[C@H](O)CCn1nnc3c(C)c(ccc31)C2CC(=O)O` (stereo partly drawn) [Example 44, [(19R)-19-hydroxy-4,31-dimethyl-27,27-dioxo-21,26-dioxa-27λ^6-thia-1,14,15,16-tetraazahexacyclo[20.5.3.1^3,70.1^9,130.0^12,160.0^25,29]dotriaconta-3(32),4,6,9(31),10,12,14,22,24,29-decaen-8-yl]acetic acid], in that order: 292 nM and 0.146 nM.
Regarding `Cc1ccc2cc1CN1Cc3cc(ccc3OS1(=O)=O)OCCCCn1nnc3c(C)c(cc(Cl)c31)[C@@H]2CC(=O)O` [Example 50, [(8R)-11-Chloro-4,31-dimethyl-27,27-dioxo-21,26-dioxa-27λ^6-thia-1,14,15,16-tetraazahexacyclo[20.5.3.1^3,70.1^9,130.0^12,160.0^25,29]dotriaconta-3(32),4,6,9(31),10,12,14,22,24,29-decaen-8-yl]acetic acid], the EC50 in experiment [1] came out at 139 nM. Moreover, the Kd in experiment [2] was 5.97 nM.
